Legend:
Tl_Est64 = molecular target: T1, Tl_Est64 (Thermosyntropha lipolytica, UniProt A0A1M5LUW5); experiment: pNP release, absorbance […] nm; format: biochemical
T1 construct: gene SAMN02745221_00755
T1 sequence (A0A1M5LUW5 29-416): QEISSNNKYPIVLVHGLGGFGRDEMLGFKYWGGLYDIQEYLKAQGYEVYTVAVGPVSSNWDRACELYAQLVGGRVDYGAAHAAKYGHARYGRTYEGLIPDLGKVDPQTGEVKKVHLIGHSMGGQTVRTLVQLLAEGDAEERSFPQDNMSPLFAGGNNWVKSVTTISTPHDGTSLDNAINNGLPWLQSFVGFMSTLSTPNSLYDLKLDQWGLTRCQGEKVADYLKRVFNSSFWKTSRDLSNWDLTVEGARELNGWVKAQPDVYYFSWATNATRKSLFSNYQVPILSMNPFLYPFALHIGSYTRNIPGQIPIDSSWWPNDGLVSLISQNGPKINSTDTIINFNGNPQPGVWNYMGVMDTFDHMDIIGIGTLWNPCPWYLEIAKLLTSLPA

Cl_EstA = molecular target: T2, Cl_EstA (Clostridium botulinum, UniProt A5I055)
T2 construct: gene lipA
T2 sequence (A5I055 1-480): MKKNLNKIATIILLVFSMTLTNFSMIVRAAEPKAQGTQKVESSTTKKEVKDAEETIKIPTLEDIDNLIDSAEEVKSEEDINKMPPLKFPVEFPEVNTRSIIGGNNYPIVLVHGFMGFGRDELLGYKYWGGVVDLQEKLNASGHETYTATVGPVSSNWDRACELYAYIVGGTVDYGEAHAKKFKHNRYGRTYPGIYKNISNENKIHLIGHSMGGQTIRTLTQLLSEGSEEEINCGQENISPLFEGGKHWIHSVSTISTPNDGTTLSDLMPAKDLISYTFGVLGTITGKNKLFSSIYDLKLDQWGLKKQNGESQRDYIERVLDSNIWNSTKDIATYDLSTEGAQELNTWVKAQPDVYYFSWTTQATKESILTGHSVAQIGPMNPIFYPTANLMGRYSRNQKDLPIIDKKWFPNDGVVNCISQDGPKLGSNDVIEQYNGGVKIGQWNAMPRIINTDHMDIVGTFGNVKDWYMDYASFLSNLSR

Dt_Est = molecular target: T3, Dt_Est (Desulfurispora thermophila, UniProt Z9TUI6NBX6); experiment: pNP release, absorbance […] nm; format: biochemical
T3 sequence (Z9TUI6NBX6 32-423): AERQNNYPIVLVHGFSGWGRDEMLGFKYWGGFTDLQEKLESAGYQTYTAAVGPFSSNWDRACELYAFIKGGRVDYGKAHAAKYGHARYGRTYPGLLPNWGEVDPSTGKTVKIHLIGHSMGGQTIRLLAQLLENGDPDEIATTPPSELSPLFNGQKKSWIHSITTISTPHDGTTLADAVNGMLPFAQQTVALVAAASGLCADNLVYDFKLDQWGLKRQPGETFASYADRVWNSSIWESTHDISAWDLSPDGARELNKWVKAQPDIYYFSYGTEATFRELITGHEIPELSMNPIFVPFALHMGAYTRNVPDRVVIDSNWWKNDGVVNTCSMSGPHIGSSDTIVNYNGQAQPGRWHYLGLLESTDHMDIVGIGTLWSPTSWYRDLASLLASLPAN

SMILES | pNP release, absorbance 405 nm (Tl_Est64) | further results
CCCCC(=O)Oc1ccc([N+](=O)[O-])cc1 [pNP valerate] | Tl_Est64 showed the highest overall activity with the substrates pNP butyrate and pNP valerate | –
CCCC(=O)Oc1ccc([N+](=O)[O-])cc1 [pNP butyrate] | Tl_Est64 showed the highest overall activity with the substrates pNP butyrate and pNP valerate | –
CC(=O)Oc1ccc([N+](=O)[O-])cc1 [pNP acetate] | – | pNP release, absorbance 405 nm (Cl_EstA): except Cl_EstA, which had the best activity with pNP acetate
CCCCCCCC(=O)Oc1ccc([N+](=O)[O-])cc1 [pNP octanoate] | – | pNP release, absorbance 405 nm (Dt_Est): Dt_Est showed the highest activity with pNP octanoate
